# In patent US4956367A, “2-amino-4-morpholino-6-propyl-1,3,5-triazines” (U C B S.A., priority 1988, dated 1990):
# Experiments:
# [1] = test system: salivatory effect of oxotremorine; test: Potentiation of the cholinergic effects of oxotremorine: salivatory (peripheral) effect; assay type: in vivo, male NMRI mice; settings: mice
# Procedure: (§1) 1. Potentiation of the cholinergic effects of oxotremorine. […] The degree of peripheral cholinergic activation is measured by the salivatory effect quantified by the following rating system:
# score 1: a little saliva is found around the teeth:
# score 2: the saliva forms a narrower band around the mouth;
# score 4: the saliva wets a surface underneath the chin;
# score 6: the saliva runs from the mouth, for example onto the forelegs.
# The intermediate scores are not used, and the saliva is wiped away after each observation.
# (§2) Male NMRI mice (20 to 25 g) are divided into four groups of five animals, that is to say: one control group and three treated groups. The compound to be tested is administered intraperitoneally (to the three treated groups) 20 minutes before the administration of the oxotremorine, at a dose which differs for each of the treated groups. […] For each of the groups, the individual scores recorded at each observation period are summed; this enables to plot a curve showing the sum of the scores as a function of time, which is characteristic for each group.
# (§3) The mean values of the areas under the curves obtained for each of the treated groups are compared with the mean value of the area under the curve corresponding to the control group and is subjected to statistical analysis by the Mann-Whitney method. From this comparison, a "minimum active dose" can be determined. […]
# [2] = test system: tremogenic effect of oxotremorine; test: Potentiation of the cholinergic effects of oxotremorine: tremogenic (central) effect; assay type: in vivo, male NMRI mice; settings: mice
# Procedure: as §1
# The degree of central cholinergic activation is measured by the tremogenic effect quantified by the following rating system:
# score 1: slight and periodic occasional tremors;
# score 2: moderate and slight tremors often repeated;
# score 4: accentuated tremors, but interrupted by periods of calm:
# score 6: very accentuated and almost continuous tremors.
# as §2, §3
# [3] = test system: amnesia induced by scopolamine; test: Multiple-trial passive avoidance: mnemic retention, amnesia induced by scopolamine; assay type: in vivo, male Sprague-Dawley rats; settings: rats
# Procedure: 4. Multiple-trial passive avoidance. The compounds of the present invention have been studied with the aim of
# Columns 3 and 4 show the results obtained in the test used to evaluate the learning. The figures indicate the average number of trials needed for a control animal (group 1) or an animal treated (group 2) with the compound to learn to remain on the rubber mat for 180 seconds in order to avoid the electric shock. The results were analyzed by the Student test.
# [4] = test system: hyperactivity induced by scopolamine; test: Inhibition of hyperactivity induced by scopolamine; assay type: in vivo, male Sprague-Dawley rats; settings: rats, administered more than 15 minutes before the measurements
# [5] = test system: effects of scopolamine on the band from 6.4 to 9.6 Hz in the EEG; test: Inhibition of the effects of scopolamine on the electroencephalogram (EEG); assay type: in vivo, male albino Sprague-Dawley rats; set-up: inhibition: dose or concentration left out as unconfirmed
# Procedure: Male albino Sprague-Dawley SPF rats (160 to 200 g) are used in this test. When the animals are 3 months old, 5 cortical electrodes are implanted permanently, aseptically and under a general anesthesia: one inert electrode, one left and one right frontal electrode, and one left and one right occipital electrode (P. ETEVENON, loc.cit.). The test is carried out when the animals are about 15 months old. In the meantime, the animals are kept in individual cages. They are given water and food ad libitum and are subjected to a regular daily cycle comprising a period of darkness between 6 o'clock in the evening and 6 o'clock in the morning. At the same time, the animals are progressively acclimatized to the cages of the sound-proof cabin which they will subsequently occupy for recording of the electroencephalograms, as well as to the experimental conditions, by intraperitoneal administration of placebo. The products are administered immediately before the EEG is recorded. The rats are divided into groups of 8 animals and 16 samples of the EEG spectra are recorded over 5 seconds (two EEG spectra per animal). The spectra obtained are then analyzed by computer (rapid Fourier transform), which enables the average of the 16 measurements performed to be determined for each group and the overall intensity of the EEG spectrum and the distribution of this intensity (in %) in the various frequency bands to be deduced for each animal. This operation (recording of the spectra) is repeated 9 times (total
# [6] = 20 minutes after administration at the minimum active dose
smiles,measurement,setting,value
"COC(=O)C1=CCCN(C)C1 [arecoline, methyl 1,2,5,6-tetrahydro-1-methyl-3-pyridinecarboxylate]",potentiation of the salivatory effect of oxotremorine 20 minutes after administration,[1]; [6],gives no potentiation
same,potentiation of the tremogenic effect of oxotremorine 20 minutes after administration,[2]; [6],gives no potentiation
O=C1CCCN1CC#CCN1CCCC1 [oxotremorine],minimal effective dose,"[1]; Mus musculus, ip, intraperitoneal, read-out: minimum dose of oxotremorine which causes salivation",~0.05 mg/kg
same,minimal effective dose,"[2]; Mus musculus, ip, intraperitoneal, read-out: minimum dose of oxotremorine which causes tremors",~0.05 mg/kg
"CNC(=O)Oc1ccc2c(c1)[C@]1(C)CCN(C)[C@@H]1N2C [physostigmine, reference compound]",influence on the amnesing effect of scopolamine,"[3]; i.p., group 4 vs. group 3","favorable action against the amnesing effect of scopolamine, similar to that of the compounds of the invention"
same,"inhibitory activity on scopolamine hyperactivity, administered more than 15 minutes before measurements",[4],inactive
same,inhibition,"[5]; Rattus norvegicus, ip, read-out: Inhibition (percentage of reduction in the increase in the intensity of the band from 6.4 to 9.6 Hz)",76.8%
same,inhibition of the effects which scopolamine exerts on the electroencephalogram,"[5]; rats, i.p.",inhibit the effects which scopolamine exerts on the electroencephalogram
CN1[C@@H]2C[C@@H](OC(=O)[C@H](CO)c3ccccc3)C[C@H]1[C@@H]1O[C@@H]12 [scopolamine],amnesing effect,"[3]; group 3, scopolamine alone",very pronounced
